How the values were obtained:
QuantiLum Luciferase [1] = molecular target: T1, QuantiLum Luciferase (Photinus pyralis, UniProt P08659); test: Firefly luciferase reaction with luciferin derivatives: light emission over time (with or without ATP, EDTA, coenzyme A, DTT); format: biochemical; set-up: unit not given here
T1 construct: purchased Promega Corporation E170
Method: Gel and HPLC stop solution. Solid EDTA (free acid) was placed in a beaker with water and the pH of the solution adjusted to pH 7.0. The solution was then adjusted in volume to produce a solution 400 mM in EDTA.
Enzyme stop solution. A solution was prepared containing 20 mM Bis Tris, pH 6.5, 2 mM EDTA and 1mg/ml bovine serum albumin.
Reaction buffer (2X). A solution was made containing 100 mM HEPES buffer, pH 8.0; 10 mM MgCl2.
DTT stock. Solid DTT (dithiothreatol) was dissolved in water and then adjusted to pH 8.0 with solid sodium hydroxide. The solution was then adjusted in volume to produce a solution 1 M in DTT.
(§1) After producing the solutions in Table 37, the volume of all reactions was adjusted to 990 µl with water. […] While the light reading was being taken, a 10 µl sample of the reaction was diluted to 500 µl with enzyme stop solution (cooled on ice to 4°C) mixed and placed on ice and a second sample of 90 µl of reaction was added to 10 µl of Gel/HPLC stop and the tube placed at -20°C. A timer was started with the start of the first reaction and the start times of the remaining reactions was noted. At 15, 30, 45 and 60 minutes, each reaction was sampled as above and the light produced in the luminometer tubes was measured. At 7 and 22 minutes, the light produced in the luminometer tubes was read, but the reactions were not sampled.
as §1, with “40,” for “37,”

QuantiLum Luciferase [2] = molecular target: T1, QuantiLum Luciferase; test: Residual active luciferase after reaction with luciferin derivatives (Steady Glo); format: biochemical, firefly; set-up: unit not given here
Method: as §1
After all samples were taken, 50 µl of the sample diluted into enzyme stop solution was mixed with 50 µl of Steady Glo Luciferase Reagent (Promega) and the light produced measured after incubating at room temperature for 10 minutes. This measured the active luciferase in the initial reaction.
as §1, with “40,” for “37,”

[3] = molecular target: T2, human recombinant monoamine oxidase B (MAO B) (Homo sapiens, UniProt P27338); test: One-step fluorogenic MAO assay with MAO-F3; format: biochemical
T2 construct: purchased Sigma Chemical Company M-7441; host or cells: baculovirus infected insect cells (microsomes)
T2 sequence (P27338 1-520): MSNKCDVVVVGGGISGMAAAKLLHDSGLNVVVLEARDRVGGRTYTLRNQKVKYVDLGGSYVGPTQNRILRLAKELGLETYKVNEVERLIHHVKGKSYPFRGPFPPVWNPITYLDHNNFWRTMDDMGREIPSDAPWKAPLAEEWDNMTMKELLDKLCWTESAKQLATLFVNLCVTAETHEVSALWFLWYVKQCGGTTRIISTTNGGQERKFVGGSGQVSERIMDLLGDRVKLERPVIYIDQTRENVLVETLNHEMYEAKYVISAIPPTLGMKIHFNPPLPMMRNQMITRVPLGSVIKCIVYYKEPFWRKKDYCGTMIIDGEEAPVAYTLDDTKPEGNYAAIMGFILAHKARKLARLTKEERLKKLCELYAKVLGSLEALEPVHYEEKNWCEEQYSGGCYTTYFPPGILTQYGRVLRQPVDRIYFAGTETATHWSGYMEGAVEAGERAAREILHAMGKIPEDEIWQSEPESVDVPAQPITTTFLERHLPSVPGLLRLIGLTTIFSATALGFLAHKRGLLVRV
Method: (§2) The fluorescent signal was then measured (excitation/emission = 355/460 nm) on a Fluoroskan Ascent plate fluorometer.
(§3) This 90 µl contained 35 µl 200 mM Tricine pH 8.3, 35 µl 200 mM Tricine pH 8.7 (or water), 10 µl 200 mM MgSO4, and 10 µl of each substrate dilution.

[4] = One-step fluorogenic MAO assay with MAO-F3, control wells with H2O instead of MAO (fluorescence of the derivative); format: biochemical
Method: as §2, §3

[5] = molecular target: T3, human recombinant monoamine oxidase A (MAO A) (Homo sapiens, UniProt P21397); test: One-step fluorogenic MAO assay with MAO-F3; format: biochemical; set-up: purchased Sigma Chemical Company M-7316; host or cells: baculovirus infected insect cells (microsomes)
T3 sequence (P21397 1-527): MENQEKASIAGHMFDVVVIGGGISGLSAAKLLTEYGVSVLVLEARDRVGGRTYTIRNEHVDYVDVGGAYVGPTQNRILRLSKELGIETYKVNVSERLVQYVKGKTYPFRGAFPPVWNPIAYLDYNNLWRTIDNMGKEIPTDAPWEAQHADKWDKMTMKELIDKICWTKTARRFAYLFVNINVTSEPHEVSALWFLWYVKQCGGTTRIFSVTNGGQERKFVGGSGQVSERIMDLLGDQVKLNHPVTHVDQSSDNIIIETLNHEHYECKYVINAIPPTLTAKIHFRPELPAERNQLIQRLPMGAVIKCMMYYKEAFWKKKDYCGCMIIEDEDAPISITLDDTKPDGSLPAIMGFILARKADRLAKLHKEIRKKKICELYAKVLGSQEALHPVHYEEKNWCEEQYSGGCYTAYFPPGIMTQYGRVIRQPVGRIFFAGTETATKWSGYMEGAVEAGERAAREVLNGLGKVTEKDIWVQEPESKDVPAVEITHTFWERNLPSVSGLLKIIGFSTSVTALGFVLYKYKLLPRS
Method: as §2, §3

[6] = fit of Table 31, fluorescence 355/460 nm

T1 sequence (P08659 whole entry): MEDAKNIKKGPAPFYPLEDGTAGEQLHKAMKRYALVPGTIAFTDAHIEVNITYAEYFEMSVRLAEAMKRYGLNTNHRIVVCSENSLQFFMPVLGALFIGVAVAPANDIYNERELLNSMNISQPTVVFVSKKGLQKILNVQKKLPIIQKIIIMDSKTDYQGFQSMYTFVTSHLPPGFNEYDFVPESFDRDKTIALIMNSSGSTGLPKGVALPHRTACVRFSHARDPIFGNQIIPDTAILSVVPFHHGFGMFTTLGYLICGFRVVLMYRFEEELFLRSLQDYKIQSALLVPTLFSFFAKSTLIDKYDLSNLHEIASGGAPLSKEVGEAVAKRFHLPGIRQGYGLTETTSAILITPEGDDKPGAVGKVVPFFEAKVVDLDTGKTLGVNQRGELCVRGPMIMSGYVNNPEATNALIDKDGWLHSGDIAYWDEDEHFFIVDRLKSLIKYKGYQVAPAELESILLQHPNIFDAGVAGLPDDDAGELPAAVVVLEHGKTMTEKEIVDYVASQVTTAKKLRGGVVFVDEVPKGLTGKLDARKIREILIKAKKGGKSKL

## O=C(O)[C@H]1CSC(c2nc3ccc(OCc4ccccc4)cc3s2)=N1 [Luc'in BE]
QuantiLum Luciferase [1]; +Co A, 7 min
  Light reading at time: 11.92
QuantiLum Luciferase [1]; +Co A, 22 min
  Light reading at time: 9.941
QuantiLum Luciferase [1]; +CoA, 0 min
  Light reading at time: 139.5
QuantiLum Luciferase [1]; +CoA, 15 min
  Light reading at time: 10.99
QuantiLum Luciferase [1]; +CoA, 30 min
  Light reading at time: 7.379
QuantiLum Luciferase [1]; +CoA, 45 min
  Light reading at time: 7.284
QuantiLum Luciferase [1]; +CoA, 60 min
  Light reading at time: 6.433
QuantiLum Luciferase [1]; +DTT, 0 min
  Light reading at time: 948
QuantiLum Luciferase [1]; +DTT, 7 min
  Light reading at time: 532.8
QuantiLum Luciferase [1]; +DTT, 15 min
  Light reading at time: 417
QuantiLum Luciferase [1]; +DTT, 22 min
  Light reading at time: 369.5
QuantiLum Luciferase [1]; +DTT, 30 min
  Light reading at time: 331.6
QuantiLum Luciferase [1]; +DTT, 45 min
  Light reading at time: 273.5
QuantiLum Luciferase [1]; +DTT, 60 min
  Light reading at time: 226.9
QuantiLum Luciferase [1]; No addition, 0 min
  Light reading at time: 135.2
QuantiLum Luciferase [1]; No addition, 7 min
  Light reading at time: 22.61
QuantiLum Luciferase [1]; No addition, 15 min
  Light reading at time: 12.79
QuantiLum Luciferase [1]; No addition, 22 min
  Light reading at time: 9.256
QuantiLum Luciferase [1]; No addition, 30 min
  Light reading at time: 6.928
QuantiLum Luciferase [1]; No addition, 45 min
  Light reading at time: 4.879
QuantiLum Luciferase [1]; No addition, 60 min
  Light reading at time: 3.311
QuantiLum Luciferase [1]; w/o ATP, 0 min
  Light reading at time: 0.015
QuantiLum Luciferase [1]; w/o ATP, 7 min
  Light reading at time: 0
QuantiLum Luciferase [1]; w/o ATP, 15 min
  Light reading at time: 0.008
QuantiLum Luciferase [1]; w/o ATP, 22 min
  Light reading at time: 0.005
QuantiLum Luciferase [1]; w/o ATP, 30 min
  Light reading at time: 0
QuantiLum Luciferase [1]; w/o ATP, 45 min
  Light reading at time: 0
QuantiLum Luciferase [1]; w/o ATP, 60 min
  Light reading at time: 0.01
QuantiLum Luciferase [2]; +CoA, 0 min
  Light reading from residual active enzyme at time: 186.7
QuantiLum Luciferase [2]; +CoA, 15 min
  Light reading from residual active enzyme at time: 179.6
QuantiLum Luciferase [2]; +CoA, 30 min
  Light reading from residual active enzyme at time: 179.4
QuantiLum Luciferase [2]; +CoA, 45 min
  Light reading from residual active enzyme at time: 157.9
QuantiLum Luciferase [2]; +CoA, 60 min
  Light reading from residual active enzyme at time: 161.8
QuantiLum Luciferase [2]; No addition, 0 min
  Light reading from residual active enzyme at time: 129.7
QuantiLum Luciferase [2]; No addition, 15 min
  Light reading from residual active enzyme at time: 69.9
QuantiLum Luciferase [2]; No addition, 30 min
  Light reading from residual active enzyme at time: 47.31
QuantiLum Luciferase [2]; No addition, 45 min
  Light reading from residual active enzyme at time: 37.94
QuantiLum Luciferase [2]; No addition, 60 min
  Light reading from residual active enzyme at time: 29.08
QuantiLum Luciferase [2]; w/o ATP, 0 min
  Light reading from residual active enzyme at time: 168.3
QuantiLum Luciferase [2]; w/o ATP, 15 min
  Light reading from residual active enzyme at time: 174.1
QuantiLum Luciferase [2]; w/o ATP, 30 min
  Light reading from residual active enzyme at time: 171.7
QuantiLum Luciferase [2]; w/o ATP, 45 min
  Light reading from residual active enzyme at time: 172.9
QuantiLum Luciferase [2]; w/o ATP, 60 min
  Light reading from residual active enzyme at time: 164

## CNCCCOc1ccc2c(C)cc(=O)oc2c1 [MAO-F3, 7-(4-methyl-3-N-methylaminopropoxy)coumarin]
[3]; [MAO-F3] 0.21 µM
  relative fluorescent signal, MAO B: 202
  relative fluorescent signal, net B: 154
[3]; [MAO-F3] 0.84 µM
  relative fluorescent signal, MAO B: 689
  relative fluorescent signal, net B: 632
[3]; [MAO-F3] 3.37 µM
  relative fluorescent signal, MAO B: 2198
  relative fluorescent signal, net B: 2080
[3]; [MAO-F3] 6.75 µM
  relative fluorescent signal, MAO B: 3683
  relative fluorescent signal, net B: 3486
[3]; [MAO-F3] 13.50 µM
  relative fluorescent signal, MAO B: 5239
  relative fluorescent signal, net B: 4891
[3]; [MAO-F3] 26.99 µM
  relative fluorescent signal, MAO B: 7468
  relative fluorescent signal, net B: 6835
[3]; [MAO-F3] 53.98 µM
  relative fluorescent signal, MAO B: 9885
  relative fluorescent signal, net B: 8675
[3]; [MAO-F3] 215.94 µM
  relative fluorescent signal, MAO B: 14149
  relative fluorescent signal, net B: 10774
[3]; [MAO-F3] 431.88 µM
  relative fluorescent signal, MAO B: 16590
  relative fluorescent signal, net B: 11493
[3]; [MAO-F3] 863.75 µM
  relative fluorescent signal, MAO B: 17322
  relative fluorescent signal, net B: 10561
[3]; fit of Table 31
  signal-to-background ratios at the Km values: about 13
[3]; [6]
  Km: 16 ± 1 µM
[4]; [MAO-F3] 0.21 µM
  relative fluorescent signal, no MAO: 48
[4]; [MAO-F3] 0.84 µM
  relative fluorescent signal, no MAO: 57
[4]; [MAO-F3] 3.37 µM
  relative fluorescent signal, no MAO: 118
[4]; [MAO-F3] 6.75 µM
  relative fluorescent signal, no MAO: 197
[4]; [MAO-F3] 13.50 µM
  relative fluorescent signal, no MAO: 348
[4]; [MAO-F3] 26.99 µM
  relative fluorescent signal, no MAO: 633
[4]; [MAO-F3] 53.98 µM
  relative fluorescent signal, no MAO: 1210
[4]; [MAO-F3] 215.94 µM
  relative fluorescent signal, no MAO: 3375
[4]; [MAO-F3] 431.88 µM
  relative fluorescent signal, no MAO: 5097
[4]; [MAO-F3] 863.75 µM
  relative fluorescent signal, no MAO: 6761
[5]; [MAO-F3] 0.21 µM
  relative fluorescent signal, MAO A: 240
  relative fluorescent signal, net A: 192
[5]; [MAO-F3] 0.84 µM
  relative fluorescent signal, MAO A: 815
  relative fluorescent signal, net A: 758
[5]; [MAO-F3] 3.37 µM
  relative fluorescent signal, MAO A: 2604
  relative fluorescent signal, net A: 2486
[5]; [MAO-F3] 6.75 µM
  relative fluorescent signal, MAO A: 4129
  relative fluorescent signal, net A: 3932
[5]; [MAO-F3] 13.50 µM
  relative fluorescent signal, MAO A: 6078
  relative fluorescent signal, net A: 5730
[5]; [MAO-F3] 26.99 µM
  relative fluorescent signal, MAO A: 8461
  relative fluorescent signal, net A: 7828
[5]; [MAO-F3] 53.98 µM
  relative fluorescent signal, MAO A: 11555
  relative fluorescent signal, net A: 10345
[5]; [MAO-F3] 215.94 µM
  relative fluorescent signal, MAO A: 16721
  relative fluorescent signal, net A: 13346
[5]; [MAO-F3] 431.88 µM
  relative fluorescent signal, MAO A: 19530
  relative fluorescent signal, net A: 14433
[5]; [MAO-F3] 863.75 µM
  relative fluorescent signal, MAO A: 21154
  relative fluorescent signal, net A: 14393
[5]; fit of Table 31
  signal-to-background ratios at the Km values: about 15
[5]; [6]
  Km: 21 ± 1 µM
